Like-named read-outs stand apart in the source and are kept apart here.
How the values were obtained:
[1] = Stability in Liver Microsomes (dog); assay type: in vitro ADME; conditions: 1 μM, 0.5 mg protein/mL, NADPH, 60 minutes, 37° C., pH 7.4
Procedure: (§1) Various compounds were tested for their stability in human, monkey, dog, rat, and mouse liver microsomes. At a final concentration of 1 μM, compounds were incubated with either human, monkey, dog, rat, or mouse liver microsomes (0.5 mg protein/mL) in the presence of an NADPH-solution for 60 minutes at 37° C., pH 7.4 in phosphate buffer. Incubations were performed in duplicate. Reactions were terminated by the addition of methanol. The incubation solution was vortexed and transferred into a 96-well plate. The plate was sealed and centrifuged at approximately 3500 rpm for approximately 10 minutes. After centrifugation, the plate was loaded into 96-well plate autosampler and analyzed by LC/MS. Values are reported as percent of compound remaining after 1 hour.

[2] = Stability in Liver Microsomes (monkey); assay type: in vitro ADME; conditions: 1 μM, 0.5 mg protein/mL, NADPH, 60 minutes, 37° C., pH 7.4
Procedure: as §1

human MC-4R = biological target: T1, human MC-4R (Homo sapiens, UniProt P32245); assay: Biological Assay: inhibition of AgRP functional interaction with MC-4R in presence of αMSH (cAMP production); assay type: cell-based; conditions: HEK293 cells expressing human MC-4R, AgRP83-132 and αMSH present
T1 construct: expressed in transfected cells
Procedure: The following method is illustrative of techniques that may be employed to measure the ability of the compounds of Formula (I) to functionally modulate the binding of AgRP to melanocortin receptors. In particular, the assay below measures the ability of compounds of Formula (I) or pharmaceutically acceptable salts thereof to functionally modulate the binding of AgRP to MC-4R in the presence of a MC-4R agonist, such as alpha-MSH.
HEK293 cells stably expressing human MC-4R receptors were grown in high glucose Dulbecco's Modified Eagle Medium (DMEM) with 4500 mg glucose/L, L-glutamine, NaHCO3, pyrdoxin HCl, 10 mM HEPES (pH 7.4), 0.1 mM NEAA (non-essential amino acid medium) (GIBCO Cat#11140-050), 10% fetal bovine serum and 700 μg/mL G418. Cells were grown in T-225 flasks at 37° C. with CO2 and humidity control.
On the day of assay, cells were washed twice with phosphate buffered saline without calcium and magnesium (PBS) and incubated with 10 mL PBS until the cells were detached from the flask. The detached cells were centrifuged at 240 g for 5 min. The cell pellet was re-suspended in assay buffer (Earle's balanced salt solution (Sigma E3024) supplemented with 10 mM HEPES, pH 7.4, 0.5 mM IBMX and protease inhibitor cocktail (Roche, 1 complete tablet/75 mL buffer)).
The inhibitory or enhancement effect of compounds on AgRP activity was measured in a multi-component assay containing testing compounds, AgRP83-132 (human, Phoenix Pharma, cat no. 003-53), cells expressing MC-4R, and αMSH (Bachem, cat no. H-1075). Test compounds, AgRP and αMSH were diluted with assay buffer. Test compounds and AgRP were mixed to 4 times of the final concentration and incubated at room temperature for 30 min. Five μL of testing compound/AgRP solution followed with 10 μL of cells (20,000 cells/well) were added to each well of a 384-well reaction plate before 5 μL of αMSH was added. Cells were stimulated with αMSH for an additional 30 min at 37° C.
Stimulation of cells was stopped by adding a lysis buffer and cells were lysed. The intracellular concentration of cAMP may be measured by various techniques known to one of skill in the art including, but not limited to, fluorescence polarization (FP) and time-resolved fluorescence (TRF).
The inhibition was shown by an increase in MC-4R mediated cAMP production.

[3] = Stability in Liver Microsomes (rat); assay type: in vitro ADME; conditions: 1 μM, 0.5 mg protein/mL, NADPH, 60 minutes, 37° C., pH 7.4
Procedure: as §1

[4] = Stability in Liver Microsomes (mouse); assay type: in vitro ADME; conditions: 1 μM, 0.5 mg protein/mL, NADPH, 60 minutes, 37° C., pH 7.4
Procedure: as §1

[5] = Stability in Liver Microsomes (human); assay type: in vitro ADME; conditions: 1 μM, 0.5 mg protein/mL, NADPH, 60 minutes, 37° C., pH 7.4
Procedure: as §1

[6] = Pharmacokinetic screening in rats (plasma and brain); conditions: rat, 5 mg/kg PO; for concentration at 2 h: male, Sprague Dawley, po, 5 mg/kg, 2 hour time point; for Brain - 24 hours AUC (h * ng/g): 24 hour study
[7] = read-out: Average EC50 (nM) in Biological Assay
[8] = plasma, Plasma - 2 hours (ng/mL)

T1 sequence (P32245 whole entry): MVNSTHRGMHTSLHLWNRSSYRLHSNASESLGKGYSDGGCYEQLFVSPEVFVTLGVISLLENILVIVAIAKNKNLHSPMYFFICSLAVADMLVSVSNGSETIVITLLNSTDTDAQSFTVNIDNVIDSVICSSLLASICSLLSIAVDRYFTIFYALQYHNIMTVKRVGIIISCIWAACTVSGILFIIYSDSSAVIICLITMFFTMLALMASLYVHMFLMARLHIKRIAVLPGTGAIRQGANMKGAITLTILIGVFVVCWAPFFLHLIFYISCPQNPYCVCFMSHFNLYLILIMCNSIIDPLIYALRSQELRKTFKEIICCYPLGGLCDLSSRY

| Stability in Liver Microsomes (% remaining after 1 hour incubation) Dog [1] [%] | Stability in Liver Microsomes (% remaining after 1 hour incubation) Monkey [2] [%] | EC50 (human MC-4R; [7]) [nM] | Stability in Liver Microsomes (% remaining after 1 hour incubation) Rat [3] [%] | Stability in Liver Microsomes (% remaining after 1 hour incubation) Mouse [4] [%] | Stability in Liver Microsomes (% remaining after 1 hour incubation) Human [5] [%] | concentration at 2 h ([6]; brain, Brain - 2 hours (ng/g)) [ng/g] | concentration at 2 h [6, 8] [ng/mL] | Structure (SMILES) | Brain - 24 hours AUC (h * ng/g) [6] | EC50 (human MC-4R; Average EC50 (nM) in Biological Assay) [nM] |
| --- | --- | --- | --- | --- | --- | --- | --- | --- | --- | --- |
| 78 | 47 | 372 | 66 | 86 | 84 |  |  | CCCC1CCC(c2csc(N(CCC(=O)O)Cc3ccc(C)s3)n2)CC1 (stereo not shown) [Example 21, 3-{(5-Methyl-thiophen-2-ylmethyl)-[4-(4-propyl-cyclohexyl)-thiazol-2-yl]-amino}-propionic acid] |  |  |
| 94 | 56 | 366 | 15 | 60 | 71 |  |  | Cc1ccc(CN(CCC(=O)O)c2nc(C3CCC(F)(F)CC3)cs2)s1 [Example 23, Sodium; 3-[[4-(4,4-difluoro-cyclohexyl)-thiazol-2-yl]-(5-methyl-thiophen-2-ylmethyl)-amino]-propionate] |  |  |
| 69 | 77 | 80 | 69 | 81 | 99 | 552 | 10500 | Cc1cc(CN(CCC(=O)O)c2nc(C3CCC(C(C)(C)C)CC3)cs2)c(C)s1 (stereo not shown) [Example 25, 3-[[4-(4-tert-Butyl-cyclohexyl)-thiazol-2-yl]-(2,5-dimethyl-thiophen-3-ylmethyl)-amino]-propionic acid] | +++ (values between 20,000 and 10,000 h*ng/g) |  |
| 94 | 88 | 1570 | 83 | 91 | 83 |  |  | COC1CCC(c2csc(N(CCC(=O)O)Cc3ccc(C)s3)n2)CC1 (stereo not shown) [Example 31, 3-[[4-(4-Methoxy-cyclohexyl)-thiazol-2-yl]-(5-methyl-thiophen-2-ylmethyl)-amino]-propionic acid] |  |  |
| 93 | 70 | 145 | 90 | 99 | 71 |  | 8400 | Cc1ccc(CN(CCC(=O)O)c2nc([C@H]3CC[C@H](c4ccccc4)CC3)cs2)s1 [Example 38, Sodium; 3-{(5-methyl-thiophen-2-ylmethyl)-[4-(trans-4-phenyl-cyclohexyl)-thiazol-2-yl]-amino}-propionate] | ++++ (values above 20,000 h*ng/g) |  |
| 36 | 85 | 219 | 67 | 90 | 61 |  |  | Cc1cc(CN(CCC(=O)[O-])c2nc(C3CCC(c4ccccc4)CC3)cs2)c(C)s1.[Na+] (stereo not shown) [Example 40, Sodium; 3-{(2,5-dimethyl-thiophen-3-ylmethyl)-[4-(4-phenyl-cyclohexyl)-thiazol-2-yl]-amino}-propionate] |  |  |
| 80 | 78 | 70 | 64 | 68 | 49 |  |  | Cc1ccc(CN(CCC(=O)O)c2nc(C3CCC(C)(C)CC3)cs2)s1 [Example 55, 3-[[4-(4,4-Dimethyl-cyclohexyl)-thiazol-2-yl]-(5-methyl-thiophen-2-ylmethyl)-amino]-propionic acid] |  |  |
| 99 | 83 | 191 | 86 | 87 | 92 |  |  | Cc1ccc(CN(CCC(=O)[O-])c2nc(C3CCC(C4CCCCC4)CC3)cs2)s1.[Na+] (stereo not shown) [Example 60, Sodium; 3-[(4-bicyclohexyl-4-yl-thiazol-2-yl)-(5-methyl-thiophen-2-ylmethyl)-amino]-propionate] |  |  |
| 84 | 13 | 246 | 40 | 74 | 68 |  |  | Cc1ccc(CN(CCC(=O)[O-])c2nc(C3CCC(c4ccc(F)cc4)CC3)cs2)s1.[Na+] (stereo not shown) [Example 61, Sodium; 3-[{4-[4-(4-fluoro-phenyl)-cyclohexyl]-thiazol-2-yl}-(5-methyl-thiophen-2-ylmethyl)-amino]-propionate] |  |  |
| 2 | 2 |  | 54 | 52 | 40 | 1140 | 3850 | CC(C)c1ccc(-c2csc(N(CCC(=O)[O-])Cc3cccs3)n2)cc1.[Na+] [Reference Compound A, Sodium 3-{[4-(4-isopropyl-phenyl)-thiazol-2-yl]-thiophen-2-ylmethyl-amino}-propionate, reference compound] | + (values less than 5,000 h*ng/g) |  |

| Structure (SMILES) | Stability in Liver Microsomes (% remaining after 1 hour incubation) Dog [1] [%] | Stability in Liver Microsomes (% remaining after 1 hour incubation) Monkey [2] [%] | EC50 (human MC-4R; [7]) [nM] | Stability in Liver Microsomes (% remaining after 1 hour incubation) Rat [3] [%] | Stability in Liver Microsomes (% remaining after 1 hour incubation) Mouse [4] [%] | Stability in Liver Microsomes (% remaining after 1 hour incubation) Human [5] [%] | concentration at 2 h ([6]; brain, Brain - 2 hours (ng/g)) [ng/g] | concentration at 2 h [6, 8] [ng/mL] | Brain - 24 hours AUC (h * ng/g) [6] | EC50 (human MC-4R; Average EC50 (nM) in Biological Assay) [nM] |
| --- | --- | --- | --- | --- | --- | --- | --- | --- | --- | --- |
| Cc1cc(CN(CCC(=O)O)c2nc(C3CCC(C(C)C)CC3)cs2)c(C)s1 (stereo not shown) [Example 26, 3-{(2,5-Dimethyl-thiophen-3-ylmethyl)-[4-(4-isopropyl-cyclohexyl)-thiazol-2-yl]-amino}-propionic acid] | 72 | 67 |  | 66 | 71 | 79 | 942 | 6260 | +++ (values between 20,000 and 10,000 h*ng/g) | 276 |

— patent US8563742B2, “Substituted aminothiazole derivatives, pharmaceutical compositions, and methods of use” (High Point Pharmaceuticals, LLC, priority 2008, dated 2013)
